Reference: the supplement of paper PMC4314810
± gives the standard deviation of the averaged measurements.

Each sequence was assayed on MCF7 (assay: HRG-induced Akt activation (dPAkt = log2 pAkt/Akt HRG-stimulated minus log2 pAkt/Akt basal) (log2 ratio difference); higher = stronger HRG-induced Akt(T308) phosphorylation). Details: miRNA mimic concentration 10 nM; time after transfection 72 h; heregulin 10 ng/ml; stimulation time 1 h.
Procedure, shortened: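 MCF7 cells were plated […] in 96-well plates and transfected in two biological replicates with a library of 879 miRNA mimics (10 nM final) using Lipofectamine RNAiMax; 72 h later they were stimulated for 1 h with 10 ng/ml heregulin-beta1 or left unstimulated. After fixation in 4% PFA, phospho-Akt(T308) and total Akt were measured by In-Cell Western on an Odyssey, with signals corrected for column-wise fixation decay. Heregulin-induced Akt activation is the stimulated minus unstimulated value of the log ratio of phospho-Akt to total Akt, averaged over replicates. That log ratio is log2(pAkt/Akt).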

Row | Sequence | HRG-induced Akt activation (log2)
1 | GACCUGGACAUGUUUGUGCCCAGU | 1.71 ± 0.12
2 | GACUAUAGAACUUUCCCCCUCA | 1.07 ± 0.064
3 | GACUGACACCUCUUUGGGUGAA | 1.49 ± 0.18
4 | GAGCCAGUUGGACAGGAGC | 1.77 ± 0.38
5 | GAGCUUAUUCAUAAAAGUGCAG | 1.76 ± 0.036
6 | GAGGGUCUUGGGAGGGAUGUGAC | 1.44 ± 0.081
7 | GAGGGUUGGGUGGAGGCUCUCC | 1.47 ± 0.36
8 | GAGUGCCUUCUUUUGGAGCGUU | 1.04 ± 0.043
9 | GAUGAGCUCAUUGUAAUAUGAG | 1.71 ± 0.24
10 | GAUGAUGAUGGCAGCAAAUUCUGAAA | 1.87 ± 0.33
11 | GAUGAUGCUGCUGAUGCUG | 1.07 ± 0.52
12 | GAUUAGGGUGCUUAGCUGUUAA | 1.67 ± 0.28
13 | GAUUGCUCUGCGUGCGGAAUCGAC | 1.24 ± 0.29
14 | GAUUUCAGUGGAGUGAAGUUC | 1.744 ± 0.0085
15 | GCAAAGCACACGGCCUGCAGAGA | 1.27 ± 0.08
16 | GCAGCAGAGAAUAGGACUACGUC | 1.7 ± 0.032
17 | GCAGGAACUUGUGAGUCUCCU | 1.8 ± 0.32
18 | GCAGUCCAUGGGCAUAUACAC | 1.66 ± 0.12
19 | GCAUGGGUGGUUCAGUGG | 1.52 ± 0.11
20 | GCCCAAAGGUGAAUUUUUUGGG | 1.33 ± 0.1
21 | GCCCCUGGGCCUAUCCUAGAA | 1.25 ± 0.56
22 | GCCCGCGUGUGGAGCCAGGUGU | 1.39 ± 0.14
23 | GCCCUCCGCCCGUGCACCCCG | 1.17 ± 0.14
24 | GCCUGCUGGGGUGGAACCUGGU | 1.81 ± 0.22

Row | Sequence | HRG-induced Akt activation (log2)
25 | GCGACCCACUCUUGGUUUCCA | 1.8 ± 0.034
26 | GCGACCCAUACUUGGUUUCAG | 1.44 ± 0.25
27 | GCGAGGACCCCUCGGGGUCUGAC | 1.05 ± 0.48
28 | GCUACUUCACAACACCAGGGCC | 1.67 ± 0.3
29 | GCUAGUCCUGACUCAGCCAGU | 2.19 ± 0.26
30 | GCUAUUUCACGACACCAGGGUU | 1.693 ± 0.0017
31 | GCUGACUCCUAGUCCAGGGCUC | 1.53 ± 0.099
32 | GCUGCGCUUGGAUUUCGUCCCC | 1.62 ± 0.098
33 | GCUGGGCAGGGCUUCUGAGCUCCUU | 1.68 ± 0.082
34 | GCUGGUUUCAUAUGGUGGUUUAGA | 1.82 ± 0.049
35 | GGAGAAAUUAUCCUUGGUGUGU | 0.932 ± 0.022
36 | GGAGACGCGGCCCUGUUGGAGU | 1.33 ± 0.052
37 | GGAGGGGUCCCGCACUGGGAGG | 1.82 ± 0.057
38 | GGAUAUCAUCAUAUACUGUAAG | 1.6 ± 0.044
39 | GGAUUCCUGGAAAUACUGUUCU | 1.2 ± 0.74
40 | GGCAGGUUCUCACCCUCUCUAGG | 2.11 ± 0.13
41 | GGCGGAGGGAAGUAGGUCCGUUGGU | 1.52 ± 0.058
42 | GGCUACAACACAGGACCCGGGC | 1.88 ± 0.32
43 | GGCUAGCAACAGCGCUUACCU | 0.933 ± 0.081
44 | GGGAGCCAGGAAGUAUUGAUGU | 1.82 ± 0.069
45 | GGGCGACAAAGCAAGACUCUUUCUU | 1.56 ± 0.061
46 | GGGCGCCUGUGAUCCCAAC | 1.62 ± 0.015
47 | GGGGAGCUGUGGAAGCAGUA | 1.73 ± 0.21
48 | GGGGGUCCCCGGUGCUCGGAUC | 1.7 ± 0.064

Row | Sequence | HRG-induced Akt activation (log2)
49 | GGGGUUCCUGGGGAUGGGAUUU | 1.21 ± 0.3
50 | GGGUGGGGAUUUGUUGCAUUAC | 1.16 ± 0.097
51 | GGUCCAGAGGGGAGAUAGGUUC | 1.67 ± 0.24
52 | GGUGCAGUGCUGCAUCUCUGGU | 1.28 ± 0.0016
53 | GGUGGCCCGGCCGUGCCUGAGG | 1.55 ± 0.26
54 | GGUUUGGUCCUAGCCUUUCUA | 1.47 ± 0.2
55 | GUAGAGGAGAUGGCGCAGGG | 1.33 ± 0.22
56 | GUAGAUUCUCCUUCUAUGAGUA | 1.35 ± 0.17
57 | GUCAGCGGAGGAAAAGAAACU | 1.47 ± 0.037
58 | GUCAUACACGGCUCUCCUCUCU | 0.922 ± 0.81
59 | GUCCAGUUUUCCCAGGAAUCCCU | 1.7 ± 0.2
60 | GUCCCUCUCCAAAUGUGUCUUG | 0.988 ± 0.27
61 | GUCCCUGUUCAGGCGCCA | 1.73 ± 0.15
62 | GUCCGCUCGGCGGUGGCCCA | 1.34 ± 0.29
63 | GUGAAAUGUUUAGGACCACUAG | 1.97 ± 0.049
64 | GUGAACGGGCGCCAUCCCGAGG | 1.9231 ± 0.00011
65 | GUGAAUUACCGAAGGGCCAUAA | 1.03 ± 0.12
66 | GUGACAUCACAUAUACGGCAGC | 1.08 ± 0.31
67 | GUGAGGACUCGGGAGGUGG | 1.19 ± 0.87
68 | GUGAGGGCAUGCAGGCCUGGAUGGGG | 1.43 ± 0.21
69 | GUGAGUCUCUAAGAAAAGAGGA | 1.56 ± 0.38
70 | GUGCAUUGCUGUUGCAUUGC | 1.178 ± 0.00052
71 | GUGCAUUGUAGUUGCAUUGCA | 1.43 ± 0.074
72 | GUGCCAGCUGCAGUGGGGGAG | 0.883 ± 0.036

Row | Sequence | HRG-induced Akt activation (log2)
73 | GUGGCUGCACUCACUUCCUUC | 1.16 ± 0.076
74 | GUGGGCGGGGGCAGGUGUGUG | 1.13 ± 0.44
75 | GUGGGGGAGAGGCUGUC | 1.33 ± 0.25
76 | GUGGGUACGGCCCAGUGGGGGG | 1.24 ± 0.18
77 | GUGUCUGCUUCCUGUGGGA | 2.6 ± 0.069
78 | GUGUCUGGGCGGACAGCUGC | 1.87 ± 0.23
79 | GUGUCUUUUGCUCUGCAGUCA | 1.75 ± 0.15
80 | GUGUGCGGAAAUGCUUCUGCUA | 1.18 ± 0.2
81 | GUGUGUGGAAAUGCUUCUGC | 2.16 ± 0.41
82 | GUGUUAAUUAAACCUCUAUUUAC | 1.76 ± 0.034
83 | GUGUUGAAACAAUCUCUACUG | 1.53 ± 0.25
84 | GUUCAAAUCCAGAUCUAUAAC | 1.08 ± 0.18
85 | GUUCUCCCAACGUAAGCCCAGC | 1.62 ± 0.15
86 | GUUGGAGGAUGAAAGUACGGAGUGAU | 0.878 ± 1.2
87 | GUUGUGUCAGUUUAUCAAAC | 1.54 ± 0.089
88 | GUUUGCACGGGUGGGCCUUGUCU | 1.88 ± 0.072
89 | UAAAGAGCCCUGUGGAGACA | 1.58 ± 0.083
90 | UAAAGUAAAUAUGCACCAAAA | 1.45 ± 0.18
91 | UAAAGUGCUGACAGUGCAGAU | 1.52 ± 0.054
92 | UAAAGUGCUUAUAGUGCAGGUAG | 1.57 ± 0.035
93 | UAAAUCCCAUGGUGCCUUCUCCU | 2.03 ± 0.12
94 | UAAAUUUCACCUUUCUGAGAAGG | 1.46 ± 0.22
95 | UAACACUGUCUGGUAAAGAUGG | 0.763 ± 0.24
96 | UAACACUGUCUGGUAACGAUGU | 1.04 ± 0.078

Row | Sequence | HRG-induced Akt activation (log2)
97 | UAACAGUCUACAGCCAUGGUCG | 1.37 ± 0.26
98 | UAACAGUCUCCAGUCACGGCC | 1.5 ± 0.11
99 | UAACUGGUUGAACAACUGAACC | 1.93 ± 0.54
100 | UAAGGCACCCUUCUGAGUAGA | 1.51 ± 0.1
101 | UAAGGCACGCGGUGAAUGCC | 1.15 ± 0.41
102 | UAAGGUGCAUCUAGUGCAGAUAG | 2.27 ± 0.37
103 | UAAGGUGCAUCUAGUGCAGUUAG | 2.1 ± 0.024
104 | UAAGUGCUUCCAUGCUU | 0.459 ± 0.22
105 | UAAGUGCUUCCAUGUUUCAGUGG | 0.9677 ± 0.0067
106 | UAAGUGCUUCCAUGUUUGAGUGU | 1.17 ± 0.15
107 | UAAGUGCUUCCAUGUUUUAGUAG | 1.08 ± 0.1
108 | UAAGUGCUUCCAUGUUUUGGUGA | 0.743 ± 0.38
109 | UAAUACUGCCGGGUAAUGAUGGA | 1.08 ± 0.34
110 | UAAUACUGCCUGGUAAUGAUGA | 1.65 ± 0.49
111 | UAAUACUGUCUGGUAAAACCGU | 1.15 ± 0.17
112 | UAAUCCUUGCUACCUGGGUGAGA | 1.79 ± 0.047
113 | UAAUCUCAGCUGGCAACUGUGA | 1.38 ± 0.37
114 | UAAUGCCCCUAAAAAUCCUUAU | 0.932 ± 0.16
115 | UAAUUGCUUCCAUGUUU | 1.75 ± 0.088
116 | UAAUUUUAUGUAUAAGCUAGU | 1.79 ± 0.15
117 | UACAGUACUGUGAUAACUGAA | 1.57 ± 0.14
118 | UACAGUAUAGAUGAUGUACU | 1.39 ± 0.57
